Source: the NIST ThermoML archive (doi:10.1021/acs.jced.7b01035)
Numbers after ± are expanded uncertainties.

Conditions: 500 kPa, Liquid, Concentric cylinders viscometry

NCCCO [3-amino-1-propanol]
Conditions	viscosity [mPa·s]
298.15 K	30.43 ± 0.33
303.15 K	23.87 ± 0.32
308.15 K	19.07 ± 0.31
313.15 K	15.27 ± 0.31
318.15 K	12.36 ± 0.31
323.15 K	10.22 ± 0.3
328.15 K	8.54 ± 0.3
333.15 K	7.12 ± 0.3
338.15 K	6.05 ± 0.3
343.15 K	4.84 ± 0.3
348.15 K	4.17 ± 0.3
353.15 K	3.63 ± 0.3
358.15 K	3.19 ± 0.3
363.15 K	2.73 ± 0.3
368.15 K	2.52 ± 0.3
373.15 K	2.25 ± 0.3
